The values that follow come from article PMC4177084 (Journal of Thyroid Research, 2014).

In general, IC50 refers to the concentration needed to halve the response being measured.

One assay addresses T1, EPHB4 (Homo sapiens, UniProt P54760).
T1 construct: purchased Carna Biosciences, Inc. (Kobe, Japan)
Kind of assay: Cell free kinase inhibition assay. The assay is classed as biochemical.

A further assay addresses T2, SYK (Homo sapiens, UniProt P43405).
T2 construct: purchased Carna Biosciences, Inc. (Kobe, Japan)
In words: Cell free kinase inhibition assay. The assay is classed as biochemical.

The target of another assay is T3, PDGFRβ (Homo sapiens, UniProt P09619).
T3 construct: purchased Carna Biosciences, Inc. (Kobe, Japan)
In words: Cell free kinase inhibition assay. The assay is classed as biochemical.

The target in another assay is T4, COT (Homo sapiens, UniProt P41279).
T4 construct: purchased Carna Biosciences, Inc. (Kobe, Japan)
Kind of assay: Cell free kinase inhibition assay. The assay is classed as biochemical. On the procedure: […]. Briefly, each test compound was mixed with enzyme, substrate, ATP, and Mg under appropriate buffer conditions for the ELISA or MSA. […] IC50 values (the half maximal inhibitory concentration) were calculated from concentrations versus % inhibition curves.

In a further assay the target is T5, PRKX (Homo sapiens, UniProt P51817).
T5 construct: purchased Carna Biosciences, Inc. (Kobe, Japan)
Kind of assay: Cell free kinase inhibition assay. The assay is classed as biochemical.

In another assay the target is T6, FGFR1 (Homo sapiens, UniProt P11362).
T6 construct: purchased Carna Biosciences, Inc. (Kobe, Japan)
Kind of assay: Cell free kinase inhibition assay. The assay is classed as biochemical.

The target in a further assay is T7, CDK4 (Homo sapiens, UniProt P11802).
T7 construct: purchased Carna Biosciences, Inc. (Kobe, Japan)
Kind of assay: Cell free kinase inhibition assay. The assay is classed as biochemical.

For a further assay, the system named is 8505C cells. In words: Antiproliferation assay (WST-8). The assay is classed as cell-based. The note with it: Homo sapiens, 72 h; 8505C (ATC), antiproliferative, 3 days.
In another assay the target is T8, FGFR3(K650M) (Homo sapiens, UniProt P22607, K650M).
T8 construct: purchased Carna Biosciences, Inc. (Kobe, Japan)
Kind of assay: Cell free kinase inhibition assay. The assay is classed as biochemical.

The subject of another assay is 8305C cells. In words: Antiproliferation assay (WST-8). The assay is classed as cell-based. The note with it: Homo sapiens, 72 h; 8305C (ATC), antiproliferative, 3 days. On the technique in general: Tetrazolium dyes change colour on reduction, which living cells bring about.
The next assay concerns FRS2. Kind of assay: Western blot of FRS2 phosphorylation in RO82-W-1 xenografts. The assay is classed as in vivo, nude mice. The note with it: 2 h after single oral 3, 10, 30, or 100 mg/kg.
The target in a further assay is T9, FLT1/VEGFR1 (Homo sapiens, UniProt P17948).
T9 construct: purchased Carna Biosciences, Inc. (Kobe, Japan)
Kind of assay: Cell free kinase inhibition assay. The assay is classed as biochemical.

Another assay concerns the target T10, KIT(D816V) (Homo sapiens, UniProt P10721, D816V).
T10 construct: purchased Carna Biosciences, Inc. (Kobe, Japan)
Kind of assay: Cell free kinase inhibition assay. The assay is classed as biochemical.

The test system of assay [1] is human thyroid cancer cell lines. Kind of assay: Antiproliferation assay, panel of 11 cell lines. The assay is classed as cell-based. The note with it: 9 out of the 11 cell lines, in vitro antiproliferative. On the procedure: The human DTC cell lines K1, FTC-133, FTC-236, FTC-238, and RO82-W-1 and the human thyroid follicular epithelial cell line Nthy-ori 3-1 were obtained from DS Pharma Biomedical Co., Ltd. (Osaka, Japan). The human MTC cell line TT was obtained from the American Type Culture Collection (Manassas, VA). The human ATC cell lines 8305C, 8505C, HTC/C3, KHM-5M, and TCO-1 were obtained from the Japanese Collection of Research Bioresources Cell Bank (Osaka, Japan). […]
Cells (1,000–3,000/well) were seeded and cultured in 96-well culture plates. […] Cell numbers were determined by using WST-8 (Dojindo, Kumamoto, Japan); 10 μL of WST-8 was added to each well, and absorbance was measured at a wavelength of 450 nm and compared with a reference measurement at 660 or 665 nm by using an MTP-500 microplate reader (Corona Electric, Ibaraki, Japan) or an EnVision Multilabel Reader (Perkin Elmer, Turku, Finland). […]

The target in another assay is T11, NEK2 (Homo sapiens, UniProt P51955).
T11 construct: purchased Carna Biosciences, Inc. (Kobe, Japan)
In words: Cell free kinase inhibition assay. The assay is classed as biochemical.

For another assay, the target named is T12, FLT4/VEGFR3 (Homo sapiens, UniProt P35916).
T12 construct: purchased Carna Biosciences, Inc. (Kobe, Japan)
Kind of assay: Cell free kinase inhibition assay. The assay is classed as biochemical.

The subject of a further assay is TT cells. In words: Antiproliferation assay (WST-8). The assay is classed as cell-based. The note with it: Homo sapiens, 240 h; TT (MTC), antiproliferative, 10 days; read-out: IC50.
The target in another assay is T13, FGFR2 (Homo sapiens, UniProt P21802).
T13 construct: purchased Carna Biosciences, Inc. (Kobe, Japan)
Kind of assay: Cell free kinase inhibition assay. The assay is classed as biochemical.

For another assay, the target named is T14, SGK3 (Homo sapiens, UniProt Q96BR1).
T14 construct: purchased Carna Biosciences, Inc. (Kobe, Japan)
In words: Cell free kinase inhibition assay. The assay is classed as biochemical.

The next assay has as its system TCO-1 cells. Kind of assay: Antiproliferation assay (WST-8). The assay is classed as cell-based. The note with it: Homo sapiens, 72 h; TCO-1 (ATC), antiproliferative, 3 days.
The next assay has as its system HTC/C3 cells. In words: Antiproliferation assay (WST-8). The assay is classed as cell-based. The note with it: Homo sapiens, 72 h; HTC/C3 (ATC), antiproliferative, 3 days.

T8 sequence (P22607 23-806 K650M): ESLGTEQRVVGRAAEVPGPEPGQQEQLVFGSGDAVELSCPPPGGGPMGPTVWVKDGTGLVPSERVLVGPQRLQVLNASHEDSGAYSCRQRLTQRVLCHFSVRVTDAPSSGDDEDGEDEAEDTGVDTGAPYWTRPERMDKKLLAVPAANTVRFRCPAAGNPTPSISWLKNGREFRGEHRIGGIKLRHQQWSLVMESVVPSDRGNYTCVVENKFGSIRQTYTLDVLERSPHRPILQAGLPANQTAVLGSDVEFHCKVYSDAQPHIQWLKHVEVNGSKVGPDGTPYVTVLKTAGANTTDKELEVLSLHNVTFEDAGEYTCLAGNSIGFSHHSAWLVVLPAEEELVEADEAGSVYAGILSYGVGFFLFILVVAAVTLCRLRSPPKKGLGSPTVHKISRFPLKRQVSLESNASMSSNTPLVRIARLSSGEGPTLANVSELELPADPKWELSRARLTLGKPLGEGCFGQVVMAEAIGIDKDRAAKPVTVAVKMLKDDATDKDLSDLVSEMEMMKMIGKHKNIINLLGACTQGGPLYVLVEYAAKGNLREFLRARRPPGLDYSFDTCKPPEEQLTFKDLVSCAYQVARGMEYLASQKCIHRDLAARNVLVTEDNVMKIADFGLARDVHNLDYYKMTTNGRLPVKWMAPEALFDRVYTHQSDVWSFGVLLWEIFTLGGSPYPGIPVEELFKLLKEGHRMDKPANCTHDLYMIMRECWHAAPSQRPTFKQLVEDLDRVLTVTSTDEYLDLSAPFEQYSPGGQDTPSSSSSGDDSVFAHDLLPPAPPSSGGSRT
T10 sequence (P10721 26-976 D816V): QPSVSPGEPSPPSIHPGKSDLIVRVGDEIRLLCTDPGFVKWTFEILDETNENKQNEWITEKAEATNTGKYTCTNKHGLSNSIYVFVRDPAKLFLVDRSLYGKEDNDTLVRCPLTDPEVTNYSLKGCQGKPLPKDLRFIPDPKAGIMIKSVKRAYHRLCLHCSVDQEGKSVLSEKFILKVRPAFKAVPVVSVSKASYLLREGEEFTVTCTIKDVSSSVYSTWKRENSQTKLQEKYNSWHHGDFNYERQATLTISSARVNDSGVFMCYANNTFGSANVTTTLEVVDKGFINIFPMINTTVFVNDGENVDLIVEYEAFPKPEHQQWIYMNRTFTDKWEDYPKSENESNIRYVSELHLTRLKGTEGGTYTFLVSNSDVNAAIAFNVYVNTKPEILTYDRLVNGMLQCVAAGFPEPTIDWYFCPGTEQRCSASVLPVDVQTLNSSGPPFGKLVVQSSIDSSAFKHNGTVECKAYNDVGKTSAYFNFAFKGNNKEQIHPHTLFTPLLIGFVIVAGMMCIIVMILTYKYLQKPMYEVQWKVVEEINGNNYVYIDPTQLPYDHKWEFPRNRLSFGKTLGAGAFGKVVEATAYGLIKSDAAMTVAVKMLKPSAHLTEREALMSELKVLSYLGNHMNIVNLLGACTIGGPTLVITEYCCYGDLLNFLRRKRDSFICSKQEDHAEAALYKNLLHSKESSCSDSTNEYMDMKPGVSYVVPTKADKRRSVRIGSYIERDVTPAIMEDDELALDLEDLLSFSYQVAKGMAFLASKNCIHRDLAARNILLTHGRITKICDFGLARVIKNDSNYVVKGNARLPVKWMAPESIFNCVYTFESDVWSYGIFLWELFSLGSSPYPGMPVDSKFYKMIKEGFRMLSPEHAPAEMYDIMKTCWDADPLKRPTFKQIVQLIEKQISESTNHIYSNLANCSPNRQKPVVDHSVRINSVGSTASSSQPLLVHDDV
T7 sequence (P11802 whole entry): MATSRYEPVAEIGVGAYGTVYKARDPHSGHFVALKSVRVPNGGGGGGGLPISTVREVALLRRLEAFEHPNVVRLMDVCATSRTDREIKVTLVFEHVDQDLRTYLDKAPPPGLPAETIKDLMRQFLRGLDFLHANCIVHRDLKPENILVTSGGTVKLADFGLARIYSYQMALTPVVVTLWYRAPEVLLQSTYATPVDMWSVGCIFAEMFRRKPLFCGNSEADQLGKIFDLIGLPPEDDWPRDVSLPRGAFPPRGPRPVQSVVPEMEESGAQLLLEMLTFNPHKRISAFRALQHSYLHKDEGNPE
T7 sequence (P30281 whole entry partner): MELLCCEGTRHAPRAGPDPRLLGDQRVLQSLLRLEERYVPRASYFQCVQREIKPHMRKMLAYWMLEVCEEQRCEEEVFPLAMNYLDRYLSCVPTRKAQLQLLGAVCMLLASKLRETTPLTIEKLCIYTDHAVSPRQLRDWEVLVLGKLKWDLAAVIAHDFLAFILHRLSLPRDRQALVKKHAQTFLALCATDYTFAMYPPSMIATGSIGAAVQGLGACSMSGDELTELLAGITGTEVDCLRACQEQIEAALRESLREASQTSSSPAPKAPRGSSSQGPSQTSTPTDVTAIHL
T11 sequence (P51955 whole entry): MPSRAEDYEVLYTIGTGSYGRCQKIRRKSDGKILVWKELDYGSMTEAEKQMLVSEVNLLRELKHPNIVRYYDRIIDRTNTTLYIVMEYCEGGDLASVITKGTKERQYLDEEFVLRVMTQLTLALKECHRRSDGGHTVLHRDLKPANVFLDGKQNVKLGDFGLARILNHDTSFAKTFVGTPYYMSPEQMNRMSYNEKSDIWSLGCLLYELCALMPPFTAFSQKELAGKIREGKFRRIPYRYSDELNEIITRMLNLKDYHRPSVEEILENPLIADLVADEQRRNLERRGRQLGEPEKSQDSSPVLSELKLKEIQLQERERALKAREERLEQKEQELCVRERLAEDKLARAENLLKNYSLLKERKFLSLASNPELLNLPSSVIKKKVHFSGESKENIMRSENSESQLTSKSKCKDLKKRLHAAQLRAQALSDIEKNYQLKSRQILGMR
T12 sequence (P35916 25-1363): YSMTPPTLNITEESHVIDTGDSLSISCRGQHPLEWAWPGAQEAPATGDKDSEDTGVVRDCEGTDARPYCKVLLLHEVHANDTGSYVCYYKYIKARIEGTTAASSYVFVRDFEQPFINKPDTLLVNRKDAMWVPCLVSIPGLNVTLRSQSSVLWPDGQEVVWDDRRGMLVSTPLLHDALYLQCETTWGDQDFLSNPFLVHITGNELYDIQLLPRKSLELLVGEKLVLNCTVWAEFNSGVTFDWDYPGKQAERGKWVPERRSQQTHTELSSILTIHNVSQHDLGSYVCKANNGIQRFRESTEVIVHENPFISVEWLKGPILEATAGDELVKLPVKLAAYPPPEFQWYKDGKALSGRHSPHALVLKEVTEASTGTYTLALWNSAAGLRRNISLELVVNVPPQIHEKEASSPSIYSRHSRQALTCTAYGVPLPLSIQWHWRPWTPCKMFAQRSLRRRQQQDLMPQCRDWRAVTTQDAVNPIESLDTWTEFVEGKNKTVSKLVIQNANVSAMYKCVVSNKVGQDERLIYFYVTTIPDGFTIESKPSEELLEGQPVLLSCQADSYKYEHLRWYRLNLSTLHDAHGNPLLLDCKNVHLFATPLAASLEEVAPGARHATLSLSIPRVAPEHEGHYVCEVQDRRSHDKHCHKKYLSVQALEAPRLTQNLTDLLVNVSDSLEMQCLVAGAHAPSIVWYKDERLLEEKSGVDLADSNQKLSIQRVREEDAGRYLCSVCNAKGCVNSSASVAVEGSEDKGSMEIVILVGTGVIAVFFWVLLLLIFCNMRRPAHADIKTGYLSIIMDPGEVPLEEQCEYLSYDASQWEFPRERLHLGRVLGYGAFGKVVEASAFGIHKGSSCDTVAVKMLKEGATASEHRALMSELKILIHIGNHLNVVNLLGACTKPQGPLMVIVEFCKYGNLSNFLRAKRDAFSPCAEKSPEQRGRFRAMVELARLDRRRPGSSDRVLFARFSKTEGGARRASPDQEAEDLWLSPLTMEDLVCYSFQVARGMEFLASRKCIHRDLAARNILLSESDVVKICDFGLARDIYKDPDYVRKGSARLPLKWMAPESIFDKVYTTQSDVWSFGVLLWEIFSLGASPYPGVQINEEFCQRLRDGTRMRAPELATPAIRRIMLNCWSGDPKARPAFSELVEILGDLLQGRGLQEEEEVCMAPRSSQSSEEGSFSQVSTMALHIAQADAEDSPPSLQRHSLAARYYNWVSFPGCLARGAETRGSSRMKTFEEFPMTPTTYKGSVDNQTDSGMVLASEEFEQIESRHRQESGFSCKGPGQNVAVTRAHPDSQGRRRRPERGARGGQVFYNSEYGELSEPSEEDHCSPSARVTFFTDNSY
T5 sequence (P51817 whole entry): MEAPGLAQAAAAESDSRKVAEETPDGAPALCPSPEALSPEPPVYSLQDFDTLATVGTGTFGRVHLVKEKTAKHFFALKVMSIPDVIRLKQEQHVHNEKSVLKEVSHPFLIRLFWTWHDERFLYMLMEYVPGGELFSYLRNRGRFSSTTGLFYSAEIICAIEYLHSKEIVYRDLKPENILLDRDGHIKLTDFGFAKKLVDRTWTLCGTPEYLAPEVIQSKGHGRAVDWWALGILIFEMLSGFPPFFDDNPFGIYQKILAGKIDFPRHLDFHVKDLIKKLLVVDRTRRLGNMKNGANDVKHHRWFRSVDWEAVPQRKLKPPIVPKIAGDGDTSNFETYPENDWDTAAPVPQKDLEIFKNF
T14 sequence (Q96BR1 whole entry): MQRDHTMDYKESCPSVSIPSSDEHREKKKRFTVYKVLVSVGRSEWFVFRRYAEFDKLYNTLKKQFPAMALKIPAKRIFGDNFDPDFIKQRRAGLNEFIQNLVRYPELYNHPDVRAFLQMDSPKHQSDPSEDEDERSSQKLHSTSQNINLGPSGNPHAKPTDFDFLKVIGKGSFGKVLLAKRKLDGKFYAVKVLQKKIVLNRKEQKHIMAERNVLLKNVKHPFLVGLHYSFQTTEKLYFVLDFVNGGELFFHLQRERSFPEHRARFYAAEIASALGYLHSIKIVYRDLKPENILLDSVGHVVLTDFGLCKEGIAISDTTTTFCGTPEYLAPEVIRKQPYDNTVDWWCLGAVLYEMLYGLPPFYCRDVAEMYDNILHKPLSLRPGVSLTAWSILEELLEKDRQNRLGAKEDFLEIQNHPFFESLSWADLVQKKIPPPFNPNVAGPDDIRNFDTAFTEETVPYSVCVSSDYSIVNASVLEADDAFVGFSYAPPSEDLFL

For the compound `COc1cc2nccc(Oc3ccc(NC(=O)NC4CC4)c(Cl)c3)c2cc1C(N)=O` [Lenvatinib, Lenvatinib mesilate], the IC50 against EPHB4 is 4.6 µM; at SYK, 8.7 µM; on PDGFRβ it was 0.16 µM; on COT, above 10 µM; against PRKX, above 10 µM; against FGFR1, 0.061 µM. Besides, the IC50 was above 10 µM on CDK4; 26 µM in the assay on 8505C cells; 0.25 µM against FGFR3(K650M); 26 µM in the assay with 8305C cells; 0.0047 µM at FLT1/VEGFR1; above 10 µM at KIT(D816V). In addition, the IC50 in assay [1] was above 10 µM; against NEK2, above 10 µM; against FLT4/VEGFR3, 0.0023 µM; in the assay with TT cells, 0.078 µM; on FGFR2, 0.027 µM; at SGK3, above 10 µM. Moreover, the IC50 with TCO-1 cells and with HTC/C3 cells was 28 µM throughout. Further, in the assay with FRS2, the “phosphorylation of FRS2” value is reported as “decreased”.
